The record followed here is paper PMC7873226, “Molecular mechanism and structural basis of small-molecule modulation of the gating of acid-sensing ion channel 1” (Communications Biology, 2021).

Test [1] addresses T1, rat ASIC1a (Rattus norvegicus, UniProt P55926).
T1 construct: expressed in transfected cells
T1 sequence (P55926 1-526): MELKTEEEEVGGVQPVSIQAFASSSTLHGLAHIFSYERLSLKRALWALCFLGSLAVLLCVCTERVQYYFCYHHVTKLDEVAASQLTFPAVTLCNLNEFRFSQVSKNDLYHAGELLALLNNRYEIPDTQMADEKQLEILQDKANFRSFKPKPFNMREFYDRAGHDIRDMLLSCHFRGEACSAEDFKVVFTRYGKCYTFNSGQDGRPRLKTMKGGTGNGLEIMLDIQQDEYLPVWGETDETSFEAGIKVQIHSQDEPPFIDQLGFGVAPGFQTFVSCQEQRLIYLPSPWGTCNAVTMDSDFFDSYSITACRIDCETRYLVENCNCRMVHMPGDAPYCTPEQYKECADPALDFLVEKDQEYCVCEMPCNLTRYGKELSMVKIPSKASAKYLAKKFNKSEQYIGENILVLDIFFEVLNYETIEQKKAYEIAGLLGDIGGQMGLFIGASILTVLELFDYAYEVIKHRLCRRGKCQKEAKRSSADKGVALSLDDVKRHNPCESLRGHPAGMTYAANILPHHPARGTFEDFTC
Nature of the test: Kinetics of onset of and recovery (wash) from compound inhibition. To be noted: holding pH 8.2, pH 6.0 test pulses. The class given is cell-based. As for the experimental part:
(§1) Chinese Hamster Ovary (CHO) cells stably expressing rat ASIC1a were cultured in Ham’s F12, supplemented with 10% FBS, 1% penicillin–streptomycin and 500 µg/mL G418 and incubated at 37 °C with 5% CO2. Transient transfections of rASIC1a and cASIC1 wild-type or mutant channels in CHO cells were performed with Lipofectamine 3000 (Thermo Fisher Scientific) according to the manufacturer’s recommendations. The green fluorescent protein (GFP) cDNA (at 1/10 the amount of channel cDNA) was co-transfected with channel cDNA to aid the identification of transfected cells under the microscope in patch clamp experiments. All cDNAs were sequence verified.
(§2) Cells were freshly dissociated with CellStripper (Corning) and dispersed in a chamber on the stage of an inverted microscope. Upon formation of the whole-cell conformation, the cell was lifted from the bottom of the chamber and placed at the tip of a tubing perfusing an extracellular solution containing (in mM): 149 NaCl, 2 CaCl2, 4 KCl, 1 MgCl2, 5 glucose, 10 HEPES, pH 7.4, 310 mOsm/L. Extracellular solutions at more basic or acidic pHs were made by titrating the above pH 7.4 solution with NaOH or HCl (5 mM MES was added to solutions at pH 6.0 and lower). Pipette electrodes were filled with an intracellular solution containing (in mM): 135 KCl, 4 MgATP, 0.3 Na2GTP, 10 EGTA, and 20 HEPES, pH 7.2, 290 mOsm/L.
(§3) All recordings were performed at room temperature using an Axopatch 200B amplifier and pClamp 11 software (Molecular Devices). Currents were measured by whole-cell patch clamp, digitized at 10 kHz and lowpass filtered at 2 kHz. Series resistance was 75% compensated. Responses were elicited by rapid perfusion of acidic solutions using the SF-77B Fast-Step Perfusion device (Warner Instruments) for 40 ms once every 30 s (unless indicated otherwise) and recorded till steady state was reached. The holding potential was 0 mV unless indicated otherwise.
(§4) Baseline values (i.e., current amplitudes at the conditioning pH) were subtracted to obtain responses evoked by the test pH. Responses were normalized for each cell before averaging (see figure legends for more detail on normalization for each type of experiment). Concentration–response data were fitted to a logistic function of the form: R = (A1–A2)/(1 + (C/C0)^h)+A2, where R is the normalized response, C is either pH or compound concentration, C0 is the pH/concentration at which half-maximal response occurs (pH50 or IC50), h is the Hill coefficient, and A1 and A2 are constants. Kinetic parameters were obtained by fitting the data with either a single or double exponential function. Fitted data are shown as solid, dashed, or dotted curves.

Test [2] addresses T1, rat ASIC1a. Nature of the test: Whole-cell patch clamp: inhibition of acid-induced current in CHO cells stably expressing rat ASIC1a. The test is classed as cell-based. On the procedure: as §1, §2, §3, §4
(In general: The patch-clamp technique gives a direct electrical read-out from membranes.)

Read-outs that look alike come from different tables or passages of the source.

In the case of `COc1ccc(Oc2ccc(-c3nc4cc(C(=N)N)ccc4[nH]3)cc2)cc1OC` [JNJ-799760], the “time constant of current inhibition” value stood at 1.6 ± 0.1 s on rat ASIC1a [1] (100 nM) and 0.2248 ± 0.0189 s at rat ASIC1a [1] (1 µM). For the same compound, the inhibition at 0.01 µM on rat ASIC1a [2] (CHO, pH 6, pH6.0, 10 nM, read-out: current inhibition, mean (source data Fig. 1e)) stood at 23.5%; at rat ASIC1a [2] (CHO, pH 7.1, pH7.1, 10 nM, read-out: current inhibition, mean (source data Fig. 1e)), 74.6%. In addition, the inhibition at 0.03 µM at rat ASIC1a [2] (CHO, pH 6, pH6.0, 30 nM, read-out: current inhibition, mean (source data Fig. 1e)) came out at 45.7%; at rat ASIC1a [2] (CHO, pH 7.1, pH7.1, 30 nM, read-out: current inhibition, mean (source data Fig. 1e)) it was 94.4%. Moreover, the inhibition at 0.1 µM stood at 66.3% on rat ASIC1a [2] (CHO, pH 6, pH6.0, 100 nM, read-out: current inhibition, mean (source data Fig. 1e)) and 99.1% on rat ASIC1a [2] (CHO, pH 7.1, pH7.1, 100 nM, read-out: current inhibition, mean (source data Fig. 1e)). Also, the inhibition at 0.3 µM at rat ASIC1a [2] (CHO, pH 6, pH6.0, 300 nM, read-out: current inhibition, mean (source data Fig. 1e)) was determined as 78.3%. In addition, the inhibition at 1 µM on rat ASIC1a [2] (CHO, pH 6, pH6.0, 1000 nM, read-out: current inhibition, mean (source data Fig. 1e)) stood at 80.7%. On rat ASIC1a [2] (CHO, pH 7.1, pH7.1, 3 nM, read-out: current inhibition, mean (source data Fig. 1e)), the inhibition at 0.003 µM turned out to be 45.1%. The max %inhibition at rat ASIC1a [2] (test pH 6.0, holding pH 8.2) came to 83.1 ± 1.2%; at rat ASIC1a [2] (test pH 7.1, holding pH 8.2), 100%. The IC50 against rat ASIC1a [2] (test pH 6.0, holding pH 8.2, WT) was found to be 24.9 ± 1.3 nM; on rat ASIC1a [2] (test pH 7.1, holding pH 8.2), 3.6 ± 0.2 nM.

One may read the inhibition as the share of the control response that was lost under treatment. By IC50 is commonly meant the concentration at which inhibition is half-maximal.
